Here are results for two compounds from ChEMBL document CHEMBL1148851, “Chemoenzymatic synthesis and in vitro studies on the hydrolysis of antimicrobial monoglycosyl diglycerides by pancreatic lipase” (2007).

Structures are written as SMILES.

For the first assay, the system named is Staphylococcus aureus. Kind of assay: Antibacterial activity against Staphylococcus aureus ATCC 25923. The format is functional.
Conditions: not given
The term MIC denotes the lowest concentration found to suppress growth. Take `CCCCCCCCCCCCCCCCCC(=O)OCC(CO[C@@H]1O[C@H](CO)[C@H](O)[C@H](O)[C@H]1O)OC(=O)CCCCCCCCCCCCCCCCC` (stereo partly drawn): the MIC is more than 128 mg/L.
As for `CCCCCCCCCCCC(=O)OCC(CO[C@@H]1O[C@H](CO)[C@H](O)[C@H](O)[C@H]1O)OC(=O)CCCCCCCCCCC` (stereo partly drawn), the MIC is more than 128 mg/L.

A further assay has as its system Staphylococcus aureus. Kind of assay: Antibacterial activity against Staphylococcus aureus ATCC 105487. Format: functional.
Conditions: not given
Regarding `CCCCCCCCCCCCCCCCCC(=O)OCC(CO[C@@H]1O[C@H](CO)[C@H](O)[C@H](O)[C@H]1O)OC(=O)CCCCCCCCCCCCCCCCC` (stereo partly drawn), the MIC is more than 128 mg/L.
Compound `CCCCCCCCCCCC(=O)OCC(CO[C@@H]1O[C@H](CO)[C@H](O)[C@H](O)[C@H]1O)OC(=O)CCCCCCCCCCC` (stereo partly drawn) displayed an MIC of more than 128 mg/L.

For a further assay, the system named is Enterococcus faecalis. Kind of assay: Antibacterial activity against Enterococcus faecalis ATCC 29212. The format is functional.
Conditions: not given
As for `CCCCCCCCCCCCCCCCCC(=O)OCC(CO[C@@H]1O[C@H](CO)[C@H](O)[C@H](O)[C@H]1O)OC(=O)CCCCCCCCCCCCCCCCC` (stereo partly drawn), the MIC was more than 128 mg/L.
For `CCCCCCCCCCCC(=O)OCC(CO[C@@H]1O[C@H](CO)[C@H](O)[C@H](O)[C@H]1O)OC(=O)CCCCCCCCCCC` (stereo partly drawn), the MIC was more than 128 mg/L.

A further assay deals with Bacillus subtilis. Put plainly: Antibacterial activity against Bacillus subtilis ATCC 6633. Format: functional. The note with it: Bacillus subtilis, ATCC 6633; read-out: MIC.
Take `CCCCCCCCCCCCCCCCCC(=O)OCC(CO[C@@H]1O[C@H](CO)[C@H](O)[C@H](O)[C@H]1O)OC(=O)CCCCCCCCCCCCCCCCC` (stereo partly drawn): the MIC is more than 128 mg/L.
Still for that read-out and setting: next, `CCCCCCCCCCCC(=O)OCC(CO[C@@H]1O[C@H](CO)[C@H](O)[C@H](O)[C@H]1O)OC(=O)CCCCCCCCCCC` (stereo partly drawn): more than 128 mg/L.

In the next assay the test system is Escherichia coli. Put plainly: Antibacterial activity against Escherichia coli ATCC 25922. The format is functional.
Conditions: not given
`CCCCCCCCCCCCCCCCCC(=O)OCC(CO[C@@H]1O[C@H](CO)[C@H](O)[C@H](O)[C@H]1O)OC(=O)CCCCCCCCCCCCCCCCC` (stereo partly drawn): the MIC is more than 128 mg/L.
As for `CCCCCCCCCCCC(=O)OCC(CO[C@@H]1O[C@H](CO)[C@H](O)[C@H](O)[C@H]1O)OC(=O)CCCCCCCCCCC` (stereo partly drawn), the MIC is more than 128 mg/L.

Another assay has as its system Pseudomonas aeruginosa. Put plainly: Antibacterial activity against Pseudomonas aeruginosa ATCC 27753. Format: functional.
Conditions: not given
Compound `CCCCCCCCCCCCCCCCCC(=O)OCC(CO[C@@H]1O[C@H](CO)[C@H](O)[C@H](O)[C@H]1O)OC(=O)CCCCCCCCCCCCCCCCC` (stereo partly drawn) came in with an MIC of more than 128 mg/L.
In turn, `CCCCCCCCCCCC(=O)OCC(CO[C@@H]1O[C@H](CO)[C@H](O)[C@H](O)[C@H]1O)OC(=O)CCCCCCCCCCC` (stereo partly drawn) returned an MIC of more than 128 mg/L.

A further assay concerns Staphylococcus aureus. Put plainly: Antibacterial activity against Staphylococcus aureus SA85 isolate. The format is functional.
Conditions: not given
`CCCCCCCCCCCCCCCCCC(=O)OCC(CO[C@@H]1O[C@H](CO)[C@H](O)[C@H](O)[C@H]1O)OC(=O)CCCCCCCCCCCCCCCCC` (stereo partly drawn) registered an MIC of more than 128 mg/L.
`CCCCCCCCCCCC(=O)OCC(CO[C@@H]1O[C@H](CO)[C@H](O)[C@H](O)[C@H]1O)OC(=O)CCCCCCCCCCC` (stereo partly drawn) displayed an MIC of more than 128 mg/L.

In a further assay the test system is Staphylococcus aureus. Put plainly: Antibacterial activity against Staphylococcus aureus SA52 isolate. Format: functional.
Conditions: not given
The compound `CCCCCCCCCCCCCCCCCC(=O)OCC(CO[C@@H]1O[C@H](CO)[C@H](O)[C@H](O)[C@H]1O)OC(=O)CCCCCCCCCCCCCCCCC` (stereo partly drawn) returned an MIC of more than 128 mg/L.
`CCCCCCCCCCCC(=O)OCC(CO[C@@H]1O[C@H](CO)[C@H](O)[C@H](O)[C@H]1O)OC(=O)CCCCCCCCCCC` (stereo partly drawn) came in with an MIC of more than 128 mg/L.

The next assay relates to Staphylococcus aureus. Kind of assay: Antibacterial activity against Staphylococcus aureus SA87 isolate. Format: functional. The note with it: Staphylococcus aureus; read-out: MIC.
For the compound `CCCCCCCCCCCCCCCCCC(=O)OCC(CO[C@@H]1O[C@H](CO)[C@H](O)[C@H](O)[C@H]1O)OC(=O)CCCCCCCCCCCCCCCCC` (stereo partly drawn), the MIC is more than 128 mg/L.
With `CCCCCCCCCCCC(=O)OCC(CO[C@@H]1O[C@H](CO)[C@H](O)[C@H](O)[C@H]1O)OC(=O)CCCCCCCCCCC` (stereo partly drawn), the MIC is more than 128 mg/L.

A further assay deals with Mycobacterium tuberculosis. Kind of assay: Antibacterial activity against Mycobacterium tuberculosis H37Rv by dilution method. Format: functional. The note with it: Mycobacterium tuberculosis, H37Rv; read-out: MIC.
In the case of `CCCCCCCCCCCCCCCCCC(=O)OCC(CO[C@@H]1O[C@H](CO)[C@H](O)[C@H](O)[C@H]1O)OC(=O)CCCCCCCCCCCCCCCCC` (stereo partly drawn), the MIC was more than 128 mg/L.
Same read-out and setting: next, `CCCCCCCCCCCC(=O)OCC(CO[C@@H]1O[C@H](CO)[C@H](O)[C@H](O)[C@H]1O)OC(=O)CCCCCCCCCCC` (stereo partly drawn): more than 128 mg/L.

The subject of another assay is Mycobacterium tuberculosis. Kind of assay: Antibacterial activity against Mycobacterium tuberculosis H160 by dilution method. The format is functional. The note with it: Mycobacterium tuberculosis, H160; read-out: MIC.
In the case of `CCCCCCCCCCCCCCCCCC(=O)OCC(CO[C@@H]1O[C@H](CO)[C@H](O)[C@H](O)[C@H]1O)OC(=O)CCCCCCCCCCCCCCCCC` (stereo partly drawn), the MIC was more than 128 mg/L.
`CCCCCCCCCCCC(=O)OCC(CO[C@@H]1O[C@H](CO)[C@H](O)[C@H](O)[C@H]1O)OC(=O)CCCCCCCCCCC` (stereo partly drawn): the minimum inhibitory concentration (MIC) is more than 128 mg/L.

The next assay concerns Mycobacterium tuberculosis. Kind of assay: Antibacterial activity against Mycobacterium tuberculosis H190 by dilution method. The format is functional.
Conditions: not given
Regarding `CCCCCCCCCCCCCCCCCC(=O)OCC(CO[C@@H]1O[C@H](CO)[C@H](O)[C@H](O)[C@H]1O)OC(=O)CCCCCCCCCCCCCCCCC` (stereo partly drawn), the MIC was more than 128 mg/L.
Still for that read-out and setting: the value for `CCCCCCCCCCCC(=O)OCC(CO[C@@H]1O[C@H](CO)[C@H](O)[C@H](O)[C@H]1O)OC(=O)CCCCCCCCCCC` (stereo partly drawn) was more than 128 mg/L.

The next assay relates to Candida albicans. Put plainly: Antifungal activity against Candida albicans by dilution method. Format: functional.
Conditions: not given
Regarding `CCCCCCCCCCCCCCCCCC(=O)OCC(CO[C@@H]1O[C@H](CO)[C@H](O)[C@H](O)[C@H]1O)OC(=O)CCCCCCCCCCCCCCCCC` (stereo partly drawn), the MIC was more than 128 mg/L.
`CCCCCCCCCCCC(=O)OCC(CO[C@@H]1O[C@H](CO)[C@H](O)[C@H](O)[C@H]1O)OC(=O)CCCCCCCCCCC` (stereo partly drawn) gave an MIC of more than 128 mg/L.

The subject of a further assay is Kluyveromyces marxianus. Put plainly: Antifungal activity against Candida pseudotropicalis by dilution method. Format: functional.
Conditions: not given
The compound `CCCCCCCCCCCCCCCCCC(=O)OCC(CO[C@@H]1O[C@H](CO)[C@H](O)[C@H](O)[C@H]1O)OC(=O)CCCCCCCCCCCCCCCCC` (stereo partly drawn) showed an MIC of more than 128 mg/L.
`CCCCCCCCCCCC(=O)OCC(CO[C@@H]1O[C@H](CO)[C@H](O)[C@H](O)[C@H]1O)OC(=O)CCCCCCCCCCC` (stereo partly drawn): the MIC was more than 128 mg/L.
